Source: US10959428B2, “Hematophagous arthropod repellent composition” (WOOJUNG BIO INC., priority 2017, dated 2021)
Where “and” joins values, the source holds several entries; their conditions need not be identical. Equal entries are not always repeated.

What was measured:
[1] = system: adult Aedes aegypti; assay: cage-in-arm test, complete protection time (CPT); format: in vivo; details: 4 mg, adult Aedes aegypti
Experimental: For determining the repellency of prepared samples against adults of Aedes aegypti and Aedes albopicus, a cage-in-arm test was carried out as a method for exposure to skin. Namely, on a back of the hand of a rubber glove, a hole with diameter of 5 cm was created, and, onto an exposed back of the testees, various samples prepared by dissolution in 100 μl of ethanol were applied, and then the skin test was carried out. The testees were healthy males between the ages of 21 and 40. The control group was treated with 100 μl of ethanol only. Female adults (5 to 8 day old) of Aedes aegypti or Aedes albopicus (250 to 300 mosquitoes) were added to a cage for growing adult mosquitoes (25×25×25 cm^3), and adapted to the indoor conditions for 12 to 24 hours before starting the test. When the upper arm of the control group is exposed for 1 minute and at least 6 mosquitoes sit on the upper arm or show a bloodsucking behavior, it was determined as sufficient biting pressure, and then the repellency test was carried out. […] The time period between the time point with initial treatment of a material and the time point at which 2 or more mosquitoes continuously sit on the treatment area or show the bloodsucking behavior was defined as complete protection time (CPT). Furthermore, for obtaining the repellency with regard to concentration, exposure was made for a constant time period regardless of the above and the repellency was calculated by using the following formula. Accordingly, the effect was compared among each test samples. All tests were carried out in triplicate. Repellency %=(Number of insects showing bloodsucking behavior in non-treatment group−Number of insects showing bloodsucking behavior in treatment group)/Number of insects showing bloodsucking behavior in non-treatment group)×100 <Tick Repellency>

[2] = system: adult Aedes albopicus; assay: cage-in-arm test, repellency and CPT; format: in vivo, Aedes albopictus
Experimental: For determining the repellency of prepared samples against adults of Aedes aegypti and Aedes albopicus, a cage-in-arm test was carried out as a method for exposure to skin. Namely, on a back of the hand of a rubber glove, a hole with diameter of 5 cm was created, and, onto an exposed back of the testees, various samples prepared by dissolution in 100 μl of ethanol were applied, and then the skin test was carried out. The testees were healthy males between the ages of 21 and 40. The control group was treated with 100 μl of ethanol only. Female adults (5 to 8 day old) of Aedes aegypti or Aedes albopicus (250 to 300 mosquitoes) were added to a cage for growing adult mosquitoes (25×25×25 cm^3), and adapted to the indoor conditions for 12 to 24 hours before starting the test. When the upper arm of the control group is exposed for 1 minute and at least 6 mosquitoes sit on the upper arm or show a bloodsucking behavior, it was determined as sufficient biting pressure, and then the repellency test was carried out. With an interval of 30 minutes, by exposing the upper arm, which has been treated with the above composition, for 3 minutes, and, when the adult mosquito sits on the arm for 2 seconds or longer or at least two mosquitoes showing the behavior of mouth injection to skin or direct bloodsucking are found from consecutive tests, the test was stopped. The time period between the time point with initial treatment of a material and the time point at which 2 or more mosquitoes continuously sit on the treatment area or show the bloodsucking behavior was defined as complete protection time (CPT). Furthermore, for obtaining the repellency with regard to concentration, exposure was made for a constant time period regardless of the above and the repellency was calculated by using the following formula. Accordingly, the effect was compared among each test samples. All tests were carried out in triplicate. Repellency %=(Number of insects showing bloodsucking behavior in non-treatment group−Number of insects showing bloodsucking behavior in treatment group)/Number of insects showing bloodsucking behavior in non-treatment group)×100 <Tick Repellency>
For reference, comparison of the mosquito repellency was made by using clove oil as a natural positive control group and DEET as a synthetic positive control group.
To determine the repellency of plant essential oil alone against adult Aedes albopicus and nymphs of Haemaphysalis longicornis, the cage-in-arm test and finger-tip method were carried out, in the same manner as Examples 1-2 and 1-3, with each of 16 kinds of plant essential oil of Table 4.

[3] = system: nymphs of Haemaphysalis longicornis; assay: finger-tip method, tick repellency; format: in vivo
Experimental: By having the outdoor group of Haemaphysalis longicornis collected from the region around Bongdam-Myon, Hwasung-Shi, Kunggi-Do, South Korea as a subject, the repellency against ticks was determined by employing a finger-tip method. In 50 μl of ethanol, each sample was dissolved in an amount of 2 mg, and then treated on the second nodule of a third finger. […] All tests were carried out in triplicate. Repellency %=(Number of insects showing bloodsucking behavior in non-treatment group−Number of insects showing bloodsucking behavior in treatment group)/Number of insects showing bloodsucking behavior in non-treatment group)×100 […]

With COc1ccc(C=O)cc1OC [3,4-Dimethoxybenzaldehyde, 3,4-dimethoxybenzaldehyde] the CPT [1] was 70 min, the CPT ([1]; listed as 3,4-demethoxybenzaldehyde) was 70 min and the “Repellency (mean ± SE, %)” value ([2]; 0.03 mg/cm^2, 10 minutes) was 100 ± 0%. For the same compound, the “Repellency (mean ± SE, %)” value ([2]; 0.03 mg/cm^2, 30 minutes) was 75 ± 7.1%, the “Repellency (mean ± SE, %)” value ([2]; 0.03 mg/cm^2, 60 minutes) was 54 ± 4.3% and the “Repellency (mean ± SE, %)” value ([2]; 0.10 mg/cm^2, 10 minutes) was 100 ± 0%. For the same compound, the “Repellency (mean ± SE, %)” value ([2]; 0.10 mg/cm^2, 30 minutes) was 93 ± 4.3%, the “Repellency (mean ± SE, %)” value ([2]; 0.10 mg/cm^2, 60 minutes) was 90 ± 4.1% and the “Repellency (mean ± SE, %)” value ([2]; 0.10 mg/cm^2, 90 minutes) was 83 ± 8.8%. For the same compound, the “Repellency (mean ± SE, %)” value ([2]; 0.10 mg/cm^2, 120 minutes) was 58 ± 5.5%, the “Repellency (mean ± SE, %)” value ([2]; 0.20 mg/cm^2, 10 minutes) was 100 ± 0% and the “Repellency (mean ± SE, %)” value ([2]; 0.20 mg/cm^2, 30 minutes) was 100 ± 0%. The “Repellency (mean ± SE, %)” value ([2]; 0.20 mg/cm^2, 60 minutes) was 99 ± 2.3%, the “Repellency (mean ± SE, %)” value ([2]; 0.20 mg/cm^2, 90 minutes) was 94 ± 4.6% and the “Repellency (mean ± SE, %)” value ([2]; 0.20 mg/cm^2, 120 minutes) was 91 ± 1.7%. For the same compound, the “Repellency (mean ± SE, %)” value ([2]; 0.20 mg/cm^2, 150 minutes) was 83 ± 2.6%, the “Repellency (mean ± SE, %)” value ([2]; 0.20 mg/cm^2, 180 minutes) was 65 ± 6.0% and the “Repellency (mean ± SE, %)” value ([2]; 0.25 mg/cm^2, 10 minutes) was 100 ± 0%. For the same compound, the “Repellency (mean ± SE, %)” value ([2]; 0.25 mg/cm^2, 30 minutes) was 100 ± 0%, the “Repellency (mean ± SE, %)” value ([2]; 0.25 mg/cm^2, 60 minutes) was 100 ± 0% and the “Repellency (mean ± SE, %)” value ([2]; 0.25 mg/cm^2, 90 minutes) was 100 ± 0%. For the same compound, the “Repellency (mean ± SE, %)” value ([2]; 0.25 mg/cm^2, 120 minutes) was 100 ± 0%, the “Repellency (mean ± SE, %)” value ([2]; 0.25 mg/cm^2, 150 minutes) was 95 ± 3.2% and the “Repellency (mean ± SE, %)” value ([2]; 0.25 mg/cm^2, 180 minutes) was 58 ± 4.4%. For the same compound, the CPT ([2]; 4 mg, adult Aedes albopicus) was 50 min, the “Repellency (mean ± SE, %)” value ([3]; 0.01 mg/cm^2, 15 min.) was 100 ± 0% and the “Repellency (mean ± SE, %)” value ([3]; 0.01 mg/cm^2, 30 min.) was 100 ± 0%. For the same compound, the “Repellency (mean ± SE, %)” value ([3]; 0.01 mg/cm^2, 60 min.) was 98 ± 2.5%, the “Repellency (mean ± SE, %)” value ([3]; 0.01 mg/cm^2, 90 min.) was 98 ± 2.5% and the “Repellency (mean ± SE, %)” value ([3]; 0.01 mg/cm^2, 120 min.) was 90 ± 5.8%. For the same compound, the “Repellency (mean ± SE, %)” value ([3]; 0.01 mg/cm^2, 150 min.) was 95 ± 2.9%, the “Repellency (mean ± SE, %)” value ([3]; 0.01 mg/cm^2, 180 min.) was 95 ± 2.9% and the “Repellency (mean ± SE, %)” value ([3]; 0.01 mg/cm^2, 210 min.) was 73 ± 10.3%. For the same compound, the “Repellency (mean ± SE, %)” value ([3]; 0.01 mg/cm^2, 240 min.) was 65% and 65 ± 2.9%, the “Repellency (mean ± SE, %)” value ([3]; 0.01 mg/cm^2, 270 min.) was 43 ± 4.8% and the “Repellency (mean ± SE, %)” value ([3]; 0.02 mg/cm^2, 15 min.) was 100 ± 0%. The “Repellency (mean ± SE, %)” value ([3]; 0.02 mg/cm^2, 30 min.) was 100 ± 0%, the “Repellency (mean ± SE, %)” value ([3]; 0.02 mg/cm^2, 60 min.) was 100 ± 0% and the “Repellency (mean ± SE, %)” value ([3]; 0.02 mg/cm^2, 90 min.) was 98 ± 2.5%. The “Repellency (mean ± SE, %)” value ([3]; 0.02 mg/cm^2, 120 min.) was 98 ± 2.5%, the “Repellency (mean ± SE, %)” value ([3]; 0.02 mg/cm^2, 150 min.) was 100 ± 0% and the “Repellency (mean ± SE, %)” value ([3]; 0.02 mg/cm^2, 180 min.) was 98 ± 2.5%. For the same compound, the “Repellency (mean ± SE, %)” value ([3]; 0.02 mg/cm^2, 210 min.) was 95 ± 5.0%, the “Repellency (mean ± SE, %)” value ([3]; 0.02 mg/cm^2, 240 min.) was 85 ± 2.9% and the “Repellency (mean ± SE, %)” value ([3]; 0.02 mg/cm^2, 270 min.) was 63 ± 4.8%. For the same compound, the “Repellency (mean ± SE, %)” value ([3]; 0.02 mg/cm^2, 300 min.) was 48 ± 2.5%, the repellency ([3]; 0.02 mg/cm^2 or higher, 4 hours after the treatment) was ≥ 78% and the “Repellency (mean ± SE, %)” value ([3]; 0.05 mg/cm^2, 15 min.) was 100 ± 0%. For the same compound, the “Repellency (mean ± SE, %)” value ([3]; 0.05 mg/cm^2, 30 min.) was 100 ± 0%, the “Repellency (mean ± SE, %)” value ([3]; 0.05 mg/cm^2, 60 min.) was 100 ± 0% and the “Repellency (mean ± SE, %)” value ([3]; 0.05 mg/cm^2, 90 min.) was 98 ± 2.5%. For the same compound, the “Repellency (mean ± SE, %)” value ([3]; 0.05 mg/cm^2, 120 min.) was 98 ± 2.5%, the “Repellency (mean ± SE, %)” value ([3]; 0.05 mg/cm^2, 150 min.) was 85 ± 2.9% and the “Repellency (mean ± SE, %)” value ([3]; 0.05 mg/cm^2, 180 min.) was 83 ± 6.3%. For the same compound, the “Repellency (mean ± SE, %)” value ([3]; 0.05 mg/cm^2, 210 min.) was 85 ± 6.5%, the “Repellency (mean ± SE, %)” value ([3]; 0.05 mg/cm^2, 240 min.) was 78 ± 4.8% and the “Repellency (mean ± SE, %)” value ([3]; 0.05 mg/cm^2, 270 min.) was 70 ± 4.1%. For the same compound, the “Repellency (mean ± SE, %)” value ([3]; 0.05 mg/cm^2, 300 min.) was 50 ± 4.1%, the “Repellency (mean ± SE, %)” value ([3]; 0.09 mg/cm^2, 15 min.) was 100 ± 0% and the “Repellency (mean ± SE, %)” value ([3]; 0.09 mg/cm^2, 30 min.) was 100 ± 0%. The “Repellency (mean ± SE, %)” value ([3]; 0.09 mg/cm^2, 60 min.) was 100 ± 0%, the “Repellency (mean ± SE, %)” value ([3]; 0.09 mg/cm^2, 90 min.) was 98 ± 2.5% and the “Repellency (mean ± SE, %)” value ([3]; 0.09 mg/cm^2, 120 min.) was 100 ± 0%. The “Repellency (mean ± SE, %)” value ([3]; 0.09 mg/cm^2, 150 min.) was 100 ± 0%, the “Repellency (mean ± SE, %)” value ([3]; 0.09 mg/cm^2, 180 min.) was 100 ± 0% and the “Repellency (mean ± SE, %)” value ([3]; 0.09 mg/cm^2, 210 min.) was 98 ± 2.5%. For the same compound, the “Repellency (mean ± SE, %)” value ([3]; 0.09 mg/cm^2, 240 min.) was 83 ± 2.5%, the “Repellency (mean ± SE, %)” value ([3]; 0.09 mg/cm^2, 270 min.) was 73 ± 6.3% and the “Repellency (mean ± SE, %)” value ([3]; 0.09 mg/cm^2, 300 min.) was 65 ± 2.9%.
